According to PubChem BioAssay AID330 (DTP/NCI, 2004):
Values joined by “and” are separate entries in the source; they are usually repeats but may differ in a detail not shown here. Equal values may be shown once. Toxic doses and inconclusive results are not listed. The calls were made as follows: active = survival T/C of 150% or more; inactive = T/C below 125% in these data.

Tested on: P388 leukemia ip, CD2F1 mice, survival T/C
Experiment: NCI In Vivo Anticancer Drug Screen. Data for tumor model P388 Leukemia (intraperitoneal) in CD2F1 (CDF1) mice
Settings: endpoint: median survival time, higher = longer survival
Outline: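 Mice carrying the transplanted tumor received test compound or vehicle. Survival was recorded in each group, and the value is the treated-group measurement divided by that of the vehicle-treated control group.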

[1] = dose: 25.0 mg/kg/injection, schedule: Q01DX005 (ip), vehicle: Klucel (hydroxypropylcellulose) (HPC)
[2] = dose: 50.0 mg/kg/injection, schedule: Q01DX005 (ip), vehicle: Klucel (hydroxypropylcellulose) (HPC)
[3] = dose: 100.0 mg/kg/injection, schedule: Q01DX005 (ip), vehicle: Klucel (hydroxypropylcellulose) (HPC)
[4] = dose: 200.0 mg/kg/injection, schedule: Q01DX005 (ip), vehicle: Klucel (hydroxypropylcellulose) (HPC)
[5] = dose: 25.0 mg/kg/injection, schedule: Q01DX009 (ip), vehicle: saline with Tween-80
[6] = dose: 50.0 mg/kg/injection, schedule: Q01DX009 (ip), vehicle: saline with Tween-80
[7] = dose: 100.0 mg/kg/injection, schedule: Q01DX009 (ip), vehicle: saline with Tween-80
[8] = dose: 50.0 mg/kg/injection, schedule: Q01DX005 (ip), vehicle: saline with Tween-80
[9] = dose: 100.0 mg/kg/injection, schedule: Q01DX005 (ip), vehicle: saline with Tween-80
[10] = dose: 200.0 mg/kg/injection, schedule: Q01DX005 (ip), vehicle: saline with Tween-80
[11] = dose: 50.0 mg/kg/injection, schedule: Q01DX009 (ip), vehicle: Klucel (hydroxypropylcellulose) (HPC)
[12] = dose: 100.0 mg/kg/injection, schedule: Q01DX009 (ip), vehicle: Klucel (hydroxypropylcellulose) (HPC)
[13] = dose: 200.0 mg/kg/injection, schedule: Q01DX009 (ip), vehicle: Klucel (hydroxypropylcellulose) (HPC)
[14] = dose: 60.0 mg/kg/injection, schedule: Q01DX005 (ip), vehicle: saline with Tween-80
[15] = dose: 120.0 mg/kg/injection, schedule: Q01DX005 (ip), vehicle: saline with Tween-80
[16] = dose: 240.0 mg/kg/injection, schedule: Q01DX005 (ip), vehicle: saline with Tween-80
[17] = dose: 200.0 mg/kg/injection, schedule: Q01DX009 (ip), vehicle: saline with Tween-80

Measured: T/C

COC(=O)[C@@H]1[C@H]2CC(C)(C)C[C@H]2C2=CCC[C@@H]21
inactive: dose: 18.5 mg/kg/injection, schedule: Q01DX005 (ip), vehicle: suspension in saline 96 % of control | dose: 37.0 mg/kg/injection, schedule: Q01DX005 (ip), vehicle: suspension in saline 98 % of control | dose: 74.0 mg/kg/injection, schedule: Q01DX005 (ip), vehicle: suspension in saline 98 % of control

O=C1/C(=C/c2cccc(F)c2)SC(=S)N1C1CC1
inactive: dose: 6.25 mg/kg/injection, schedule: Q01DX005 (ip), vehicle: Klucel (hydroxypropylcellulose) (HPC) 96 % of control | dose: 12.5 mg/kg/injection, schedule: Q01DX005 (ip), vehicle: Klucel (hydroxypropylcellulose) (HPC) 96 % of control | [1] 99 % of control | [2] 94 % of control | [3] 92 % of control | [4] 87 % of control

Cc1ccc(S(=O)(=O)N(Cc2ccccc2)S(=O)(=O)c2ccc(C)cc2)cc1
inactive: [5] 110 % of control | [6] 118 % of control | [7] 101 % of control

O=C(NC(=O)c1c(F)cccc1F)Nc1ccc(C(O)(C(F)(F)F)C(F)(F)F)cc1
inactive: [8] 102 % of control | [9] 100 % of control | [10] 109 % of control

O=P(C(=S)NC1CC2C=CC1C2)(c1ccccc1)c1ccccc1 (stereo not given)
inactive: dose: 25.0 mg/kg/injection, schedule: Q01DX009 (ip), vehicle: Klucel (hydroxypropylcellulose) (HPC) 95 % of control | [11] 100 % of control and 88 % of control | [12] 91 % of control | [13] 90 % of control

Cc1cc(Oc2ccc(Cl)cc2NC(=O)Nc2cccc(C(F)(F)F)c2)cc(S(=O)(=O)O)c1Cl
inactive: dose: 100.0 mg/kg/injection, schedule: Q01DX001 (ip), vehicle: saline with Tween-80 100 % of control

CCCCN(CCCC)C(=O)C(O)C(=O)N(CCCC)CCCC
inactive: [1] 104 % of control | [2] 104 % of control | [3] 98 % of control | [4] 109 % of control

Cl.O=C([O-])C1C[SH+]C(C(O)C(O)C(O)C(O)CO)N1.O=C([O-])C1C[SH+]C(C(O)C(O)C(O)C(O)CO)N1.[Pd+2] (stereo not given)
inactive: dose: 100.0 mg/kg/injection, schedule: Q01DX001 (ip), vehicle: saline 103 % of control | dose: 200.0 mg/kg/injection, schedule: Q01DX001 (ip), vehicle: saline 104 % of control | dose: 400.0 mg/kg/injection, schedule: Q01DX001 (ip), vehicle: saline 95 % of control

Nc1ncnc2c1ccn2COCCO
inactive: dose: 50.0 mg/kg/injection, schedule: Q01DX005 (ip), vehicle: distilled water + alcohol 100 % of control | dose: 100.0 mg/kg/injection, schedule: Q01DX005 (ip), vehicle: distilled water + alcohol 101 % of control | dose: 200.0 mg/kg/injection, schedule: Q01DX005 (ip), vehicle: distilled water + alcohol 99 % of control

O=C1CC(N2CCCC2)=Nc2ccccc2N1
inactive: [2] 113 % of control | [3] 104 % of control | [4] 103 % of control

CCCc1c(OC)c(OC)c2c(c1C(C)=O)OCO2
inactive: [8] 100 % of control | [9] 100 % of control | [10] 104 % of control

Oc1cc2c(cc1O)C(c1ccccc1)CNCC2 (stereo not given)
inactive: [5] 103 % of control | [6] 97 % of control | [7] 104 % of control

CC(C)(C#N)OC(=O)c1cccc(C(=O)OC(C)(C)C#N)c1Sc1ccccc1
inactive: dose: 25.0 mg/kg/injection, schedule: Q01DX001 (ip), vehicle: other 99 % of control | dose: 50.0 mg/kg/injection, schedule: Q01DX001 (ip), vehicle: other 105 % of control | dose: 100.0 mg/kg/injection, schedule: Q01DX001 (ip), vehicle: other 98 % of control and 105 % of control

O=[N+]([O-])c1c(Nc2ccccc2)nc(-c2ccccc2)nc1Nc1ccccc1
inactive: dose: 100.0 mg/kg/injection, schedule: Q04DX003 (ip), vehicle: saline 90 % of control | dose: 200.0 mg/kg/injection, schedule: Q04DX003 (ip), vehicle: saline 92 % of control | dose: 400.0 mg/kg/injection, schedule: Q04DX003 (ip), vehicle: saline 90 % of control

CCCOc1ccc2c(NCCCCCCNc3c4ccccc4nc4cc(OCCC)ccc34)c3ccccc3nc2c1
inactive: dose: 0.62 mg/kg/injection, schedule: Q## X009 (ip), vehicle: lactic acid 121 % of control | dose: 2.5 mg/kg/injection, schedule: Q## X009 (ip), vehicle: lactic acid 120 % of control | dose: 5.0 mg/kg/injection, schedule: Q## X009 (ip), vehicle: lactic acid 105 % of control

N#CC(C#N)=C(C#N)c1ccccc1
inactive: dose: 12.5 mg/kg/injection, schedule: Q01DX009 (ip), vehicle: saline with Tween-80 90 % of control | [5] 113 % of control

Cc1cccc(C2(C)C(=O)c3ccccc3C2=O)c1
inactive: dose: 100.0 mg/kg/injection, schedule: Q04DX002 (ip), vehicle: saline 100 % of control | dose: 200.0 mg/kg/injection, schedule: Q04DX002 (ip), vehicle: saline 105 % of control | dose: 400.0 mg/kg/injection, schedule: Q04DX002 (ip), vehicle: saline 102 % of control

COc1ccc(C(=O)/C(C)=C(/C)N)c(OCc2ccccc2)c1OC
inactive: [2] 104 % of control | [3] 94 % of control | [4] 105 % of control

CN1C2C=CC(=O)C1C1C(=O)N(c3ccccc3)C(=O)C12 (stereo not given)
inactive: dose: 17.5 mg/kg/injection, schedule: Q01DX005 (ip), vehicle: Klucel (hydroxypropylcellulose) (HPC) 109 % of control and 121 % of control | dose: 35.0 mg/kg/injection, schedule: Q01DX005 (ip), vehicle: Klucel (hydroxypropylcellulose) (HPC) 113 % of control and 118 % of control | dose: 70.0 mg/kg/injection, schedule: Q01DX005 (ip), vehicle: Klucel (hydroxypropylcellulose) (HPC) 121 % of control

Cc1cc(Nc2cc(=O)[nH]c(=O)[nH]2)ccc1N
inactive: [14] 97 % of control | [15] 97 % of control | [16] 93 % of control

Clc1ccc2ncnc(Nc3ccccc3)c2c1
inactive: [11] 91 % of control | [12] 100 % of control | [13] 86 % of control

O=C(O)CC(/C=C\C(=O)C(=O)O)=C\O
inactive: dose: 1.56 mg/kg/injection, schedule: Q01DX009 (ip), vehicle: saline 100 % of control | dose: 3.12 mg/kg/injection, schedule: Q01DX009 (ip), vehicle: saline 101 % of control | dose: 6.25 mg/kg/injection, schedule: Q01DX009 (ip), vehicle: saline 100 % of control | dose: 12.5 mg/kg/injection, schedule: Q01DX009 (ip), vehicle: saline 100 % of control and 114 % of control | dose: 25.0 mg/kg/injection, schedule: Q01DX009 (ip), vehicle: saline 100 % of control and 109 % of control | dose: 50.0 mg/kg/injection, schedule: Q01DX009 (ip), vehicle: saline 106 % of control | dose: 100.0 mg/kg/injection, schedule: Q01DX009 (ip), vehicle: saline 112 % of control | dose: 200.0 mg/kg/injection, schedule: Q01DX009 (ip), vehicle: saline 86 % of control

CNS(=O)(=O)c1cc([N+](=O)[O-])c(N2CCCCC2)c([N+](=O)[O-])c1
inactive: [11] 100 % of control | [12] 100 % of control | [13] 99 % of control

Nc1cc(S(N)(=O)=O)ccc1SSc1ccc(S(N)(=O)=O)cc1N
inactive: [11] 94 % of control | [6] 105 % of control | [12] 112 % of control | [7] 109 % of control | [13] 112 % of control | [17] 110 % of control | dose: 400.0 mg/kg/injection, schedule: Q01DX009 (ip), vehicle: Klucel (hydroxypropylcellulose) (HPC) 121 % of control | dose: 400.0 mg/kg/injection, schedule: Q01DX009 (ip), vehicle: saline with Tween-80 117 % of control

O=C(CNC(=O)Nc1cccc(C(F)(F)F)c1)NNC(=O)Nc1ccc(Cl)c([N+](=O)[O-])c1
inactive: [14] 92 % of control | [15] 87 % of control | [16] 92 % of control

N#CN=CN1CCN(c2ccccc2)CC1
inactive: [6] 100 % of control | [7] 97 % of control | [17] 99 % of control

Cc1ccc(NC(=O)N(NC(=O)NNc2ccccc2)c2ccccc2)c(C)c1
inactive: [6] 99 % of control | [7] 93 % of control | [17] 92 % of control

[Cl][Sn]([c]1ccccc1)([c]1ccccc1)[c]1ccccc1
inactive: dose: 2.5 mg/kg/injection, schedule: Q01DX009 (ip), vehicle: saline 100 % of control | dose: 5.0 mg/kg/injection, schedule: Q01DX009 (ip), vehicle: saline 115 % of control
